Entries after “also recorded” stand apart in the source; their conditions may differ.

For orientation: melting point means the temperature, or range, at which the solid turns liquid. By ΔTm is commonly meant the change in melting temperature against a reference sample. As usually defined, the IC50 is the concentration that inhibits the measured activity by half.

Data set [1] relates to panel of 46 protein kinases. As to the kind of experiment: DSF kinome selectivity panel, hits over 2 °C. The following applies: 10 μM compound, average of 4 experiments; for Number of Kinases Hit DSF > 2 °C: of 46 kinases; for Kinases Hit DSF > 2 °C: names of the kinases hit, 46 kinases. Type of data set: binding. On the procedure: The corresponding dianilino-TDZs (1–5) were tested on a panel of 46 protein kinases representing the major kinome branches at a concentration of 10 μM using a Differential Scanning Fluorimetry (DSF). Only analogues 1–3 induced a significant (>2 °C) thermal shift when incubated with a subset of the proteins (Table 1).
Kinase selectivity assay—A home-made kinase panel was generated for the following enzymes: AAK1, BMP2K, BMX, BRAF, CAMK1D, CAMK1G, CAMKK1, CAMKK2B, CDC42BPA, CDK2, CDKL1, CHEK2, CLK1, CSNK1G1, CSNK1G3, CSNK2A1, DYRK1A, DYRK2A, EPHA2, GAK, GSG2, MAPK1, MAP2K7, MAPK14B, MAPK3, PHKG2, PIM1, PLK1, PKMYT1, PRPF4B, RPS6KA1A, RPS6KA5A, RPS6KA6A, SLK, SRPK1, SRPK2, STK3, STK6, STK10, STK17A, STK24, STK38L, TRIB2, TTK, VRK1 and VRK2. Proteins were produced in E. coli, purified in a Ni-chelate column, followed by overnight digestion using TEV protease (made in house with an N-terminal 6xHis tag) and dialysis to remove imidazole. To clear samples of uncleaved proteins and the TEV protease, samples were loaded on new Ni-chelate columns. The flow through was collected, concentrated and loaded to a HiLoad Superdex 200 16/600 column (GE Healthcare, Chicago, IL, USA) for final polishing and buffer exchange.
Starting from 100 µM protein stocks, our kinase panel enzymes were diluted to 1 µM in buffer 100 mM K2HPO4 pH 7.5 containing 150 mM NaCl, 10% glycerol and 5X dye (Applied Biosystems catalogue 4461806). The protein/dye mixture was transferred to a 384-well PCR microplate having 20 µL per well. Compounds in DMSO at 10 mM concentration were added in 20 nL volume, using a liquid handling device setup with a pin head, to make 10 µM compound concentration in the assay plate.
Protein thermal shift data was measured in a qPCR instrument (Applied Biosystems QuantStudio 6) programmed to equilibrate the plate at 25 °C for 5 min followed by ramping the temperature to 95 °C at a rate of 0.05 °C/s. Data was processed using Protein Thermal shift software (Applied Biosystems) by fitting experimental curves to a Boltzmann function to calculate differential thermal shifts (dTm) referenced to protein/dye in 0.2% DMSO.

The target in the next data set is T1, BMP2K (Homo sapiens, UniProt Q9NSY1).
T1 construct: purchased in-house (home-made panel, SGC-style construct names)
Put plainly: DSF thermal shift, kinase panel. The format is binding. As to conditions: 10 μM compound. The essentials: (§1)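 Compounds were screened at 10 µM by differential scanning fluorimetry against 1 µM purified kinase in buffered glycerol/NaCl with fluorescent dye. Melting curves, recorded during a 0.05 °C/s ramp to 95 °C, were fitted to a Boltzmann function to give dTm.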

Another data set concerns the target T2, PLK1A (Homo sapiens, UniProt P53350).
T2 construct: purchased in-house (home-made panel, SGC-style construct names)
As to the kind of experiment: DSF thermal shift, kinase panel. The format is binding. As to conditions: 10 μM compound. The essentials: as §1

A further data set has as its target T3, VRK2A (Homo sapiens, UniProt Q86Y07).
T3 construct: TEV-cleavable (cleaved yes); made in house; host or cells: E. coli
Put plainly: DSF thermal shift, kinase panel. Type of data set: binding. The following applies: 10 μM compound. The essentials: as §1

The next data set addresses T4, MAPK1A (Homo sapiens, UniProt P28482).
T4 construct: purchased in-house (home-made panel, SGC-style construct names)
As to the kind of experiment: DSF thermal shift, kinase panel. Type of data set: binding. As to conditions: 10 μM compound. The method in brief: as §1

The target of the next data set is T5, VRK1 (Homo sapiens, UniProt Q99986).
T5 construct: TEV-cleavable (cleaved yes); made in house; host or cells: E. coli
T5 sequence (Q99986 1-396): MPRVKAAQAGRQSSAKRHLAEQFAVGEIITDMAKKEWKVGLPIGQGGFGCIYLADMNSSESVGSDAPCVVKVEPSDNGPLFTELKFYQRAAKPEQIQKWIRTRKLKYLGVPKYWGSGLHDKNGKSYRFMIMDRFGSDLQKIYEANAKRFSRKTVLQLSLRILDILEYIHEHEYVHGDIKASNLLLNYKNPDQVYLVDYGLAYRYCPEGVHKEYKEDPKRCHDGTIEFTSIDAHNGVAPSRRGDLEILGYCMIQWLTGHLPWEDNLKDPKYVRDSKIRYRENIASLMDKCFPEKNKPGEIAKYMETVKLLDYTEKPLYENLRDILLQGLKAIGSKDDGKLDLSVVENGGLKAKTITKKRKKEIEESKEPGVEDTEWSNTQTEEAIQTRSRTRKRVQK
Put plainly: DSF thermal shift, kinase panel. Type of data set: binding. As to conditions: 10 μM compound. The essentials:
as §1

The next data set has as its target T6, SRPK2A (Homo sapiens, UniProt P78362).
T6 construct: purchased in-house (home-made panel, SGC-style construct names)
As to the kind of experiment: DSF thermal shift, kinase panel. Type of data set: binding. The following applies: 10 μM compound. The method in brief: as §1

Another data set addresses T7, MAPK3A (Homo sapiens, UniProt P27361).
T7 construct: purchased in-house (home-made panel, SGC-style construct names)
Put plainly: DSF thermal shift, kinase panel. Type of data set: binding. As to conditions: 10 μM compound. The essentials:
as §1

For a further data set, the target named is T8, STK24A (Homo sapiens, UniProt Q9Y6E0).
T8 construct: TEV-cleavable (cleaved yes); made in house; host or cells: E. coli
Put plainly: DSF thermal shift, kinase panel. Type of data set: binding. As to conditions: 10 μM compound. The essentials:
as §1

Data set [2] deals with T9, CAMKK2 kinase domain (132–470) (Homo sapiens, UniProt Q96RR4).
T9 construct: CAMKK2 kinase domain (132–470) was cloned in a pNIC-Bio2 vector; 10xHis tag followed by a TEV site (N, cleaved yes); made in house; host or cells: E. coli BL21(DE3)-R3-BirA
Put plainly: CaMKK2B TR-FRET tracer displacement assay. The format is binding. The following applies: CaMKK2, displacement of tracer 236, average of 2 experiments. A general note: In TR-FRET formats the signal depends on donor and acceptor labels being close together.
Source text: To more accurately determine the relative changes in potency of the TDZ analogues and to enable measurement of accurate IC50^’s, we developed a Time-Resolved Fluorescence Resonance Energy Transfer (TR-FRET) assay. The TR-FRET tracer displacement assays were generated using a protocol derived from the Lanthascreen binding assays (ThermoFisher Scientific, Waltham, MA, USA) [21].

T1 sequence (Q9NSY1 whole entry): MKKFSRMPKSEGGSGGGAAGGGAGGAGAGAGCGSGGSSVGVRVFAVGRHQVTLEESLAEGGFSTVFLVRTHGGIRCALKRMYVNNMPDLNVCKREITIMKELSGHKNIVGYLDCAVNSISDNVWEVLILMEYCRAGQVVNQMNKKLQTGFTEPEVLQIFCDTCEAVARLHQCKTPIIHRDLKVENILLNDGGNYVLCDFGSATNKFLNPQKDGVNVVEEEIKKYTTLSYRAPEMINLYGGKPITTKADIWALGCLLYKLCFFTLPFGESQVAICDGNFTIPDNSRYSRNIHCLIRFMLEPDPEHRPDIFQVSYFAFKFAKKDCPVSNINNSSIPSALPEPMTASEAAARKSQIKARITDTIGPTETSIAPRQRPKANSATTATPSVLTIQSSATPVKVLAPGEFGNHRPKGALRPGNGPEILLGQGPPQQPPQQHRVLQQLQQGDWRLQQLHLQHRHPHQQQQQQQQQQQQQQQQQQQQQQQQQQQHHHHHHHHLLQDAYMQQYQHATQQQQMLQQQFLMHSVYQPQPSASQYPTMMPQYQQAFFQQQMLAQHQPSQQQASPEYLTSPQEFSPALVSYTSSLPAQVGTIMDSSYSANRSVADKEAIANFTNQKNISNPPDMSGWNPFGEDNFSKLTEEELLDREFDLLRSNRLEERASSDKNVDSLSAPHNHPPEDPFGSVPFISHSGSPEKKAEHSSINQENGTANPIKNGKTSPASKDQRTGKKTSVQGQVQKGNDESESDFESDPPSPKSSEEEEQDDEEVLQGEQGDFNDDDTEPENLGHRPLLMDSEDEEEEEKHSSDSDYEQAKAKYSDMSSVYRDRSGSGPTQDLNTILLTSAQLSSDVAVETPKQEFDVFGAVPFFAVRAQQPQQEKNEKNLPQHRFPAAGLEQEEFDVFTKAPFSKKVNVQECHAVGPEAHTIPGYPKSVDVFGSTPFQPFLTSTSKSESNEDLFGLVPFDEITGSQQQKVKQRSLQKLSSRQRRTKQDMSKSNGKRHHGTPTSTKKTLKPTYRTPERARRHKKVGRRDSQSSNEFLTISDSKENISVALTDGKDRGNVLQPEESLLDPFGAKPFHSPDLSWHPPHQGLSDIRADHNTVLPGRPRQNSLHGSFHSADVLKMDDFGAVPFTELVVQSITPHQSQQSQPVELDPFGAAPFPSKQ
T2 sequence (P53350 whole entry): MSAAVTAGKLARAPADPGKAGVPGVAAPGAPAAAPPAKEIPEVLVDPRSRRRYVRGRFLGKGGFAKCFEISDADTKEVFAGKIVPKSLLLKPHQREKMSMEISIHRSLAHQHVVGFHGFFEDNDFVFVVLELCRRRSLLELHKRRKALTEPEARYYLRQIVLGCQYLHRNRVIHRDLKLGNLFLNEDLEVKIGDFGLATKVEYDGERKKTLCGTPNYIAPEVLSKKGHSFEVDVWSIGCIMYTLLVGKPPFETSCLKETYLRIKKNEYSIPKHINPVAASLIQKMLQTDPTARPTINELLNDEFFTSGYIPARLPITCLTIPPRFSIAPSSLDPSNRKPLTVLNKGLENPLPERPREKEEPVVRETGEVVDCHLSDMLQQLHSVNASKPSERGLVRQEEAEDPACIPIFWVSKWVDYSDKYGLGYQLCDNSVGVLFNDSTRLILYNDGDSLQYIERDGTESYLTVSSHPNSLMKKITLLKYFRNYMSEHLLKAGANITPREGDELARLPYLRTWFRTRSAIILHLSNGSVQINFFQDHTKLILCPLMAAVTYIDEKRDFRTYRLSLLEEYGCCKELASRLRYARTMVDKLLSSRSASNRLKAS
T7 sequence (P27361 whole entry): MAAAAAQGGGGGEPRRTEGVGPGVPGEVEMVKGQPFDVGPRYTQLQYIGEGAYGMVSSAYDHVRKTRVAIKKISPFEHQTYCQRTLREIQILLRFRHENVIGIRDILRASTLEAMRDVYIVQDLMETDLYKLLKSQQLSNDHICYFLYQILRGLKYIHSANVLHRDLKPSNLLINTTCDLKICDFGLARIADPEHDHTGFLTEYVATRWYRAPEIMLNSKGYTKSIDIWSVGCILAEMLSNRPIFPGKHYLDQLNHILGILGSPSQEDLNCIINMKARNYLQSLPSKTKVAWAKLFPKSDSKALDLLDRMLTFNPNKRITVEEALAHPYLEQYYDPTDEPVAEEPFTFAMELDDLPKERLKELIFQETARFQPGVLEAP
T8 sequence (Q9Y6E0 whole entry): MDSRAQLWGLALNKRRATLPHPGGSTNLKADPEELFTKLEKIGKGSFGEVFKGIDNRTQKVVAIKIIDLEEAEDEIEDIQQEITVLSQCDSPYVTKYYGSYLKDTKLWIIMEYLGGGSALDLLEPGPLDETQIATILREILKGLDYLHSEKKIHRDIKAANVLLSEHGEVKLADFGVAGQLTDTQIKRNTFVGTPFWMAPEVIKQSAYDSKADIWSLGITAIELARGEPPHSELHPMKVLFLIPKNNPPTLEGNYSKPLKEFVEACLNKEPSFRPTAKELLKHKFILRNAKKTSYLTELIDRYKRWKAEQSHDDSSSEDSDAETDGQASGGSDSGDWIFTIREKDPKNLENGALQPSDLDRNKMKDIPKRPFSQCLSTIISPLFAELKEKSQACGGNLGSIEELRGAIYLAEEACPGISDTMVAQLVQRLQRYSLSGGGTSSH
T6 sequence (P78362 whole entry): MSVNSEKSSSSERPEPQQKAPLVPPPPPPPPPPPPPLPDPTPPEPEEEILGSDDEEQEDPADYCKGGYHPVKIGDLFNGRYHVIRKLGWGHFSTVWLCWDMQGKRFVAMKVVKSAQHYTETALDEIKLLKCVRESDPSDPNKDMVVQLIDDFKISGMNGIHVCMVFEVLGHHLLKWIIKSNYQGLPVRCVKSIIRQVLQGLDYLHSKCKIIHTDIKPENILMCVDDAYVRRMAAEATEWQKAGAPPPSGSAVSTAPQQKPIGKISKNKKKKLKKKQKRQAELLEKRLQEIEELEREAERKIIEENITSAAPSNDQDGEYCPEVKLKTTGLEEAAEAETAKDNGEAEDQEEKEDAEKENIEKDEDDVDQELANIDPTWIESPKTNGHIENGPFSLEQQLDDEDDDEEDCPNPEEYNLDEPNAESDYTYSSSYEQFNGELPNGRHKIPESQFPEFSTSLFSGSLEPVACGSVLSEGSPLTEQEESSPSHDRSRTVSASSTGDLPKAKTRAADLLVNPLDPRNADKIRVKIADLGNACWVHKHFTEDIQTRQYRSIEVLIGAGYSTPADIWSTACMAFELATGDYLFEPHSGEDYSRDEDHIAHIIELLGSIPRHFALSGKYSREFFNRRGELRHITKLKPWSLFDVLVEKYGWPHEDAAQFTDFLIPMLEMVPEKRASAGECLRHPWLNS
T9 sequence (Q96RR4 132-470): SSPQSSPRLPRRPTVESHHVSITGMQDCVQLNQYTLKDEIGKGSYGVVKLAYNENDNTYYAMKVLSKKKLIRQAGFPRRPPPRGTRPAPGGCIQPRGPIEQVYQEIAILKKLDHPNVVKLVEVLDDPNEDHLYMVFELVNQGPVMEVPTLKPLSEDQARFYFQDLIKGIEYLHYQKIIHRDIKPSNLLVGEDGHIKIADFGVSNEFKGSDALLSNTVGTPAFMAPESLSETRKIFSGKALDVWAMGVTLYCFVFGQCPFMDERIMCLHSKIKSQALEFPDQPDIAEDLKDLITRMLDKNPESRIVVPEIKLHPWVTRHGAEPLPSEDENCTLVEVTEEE
T3 sequence (Q86Y07 whole entry): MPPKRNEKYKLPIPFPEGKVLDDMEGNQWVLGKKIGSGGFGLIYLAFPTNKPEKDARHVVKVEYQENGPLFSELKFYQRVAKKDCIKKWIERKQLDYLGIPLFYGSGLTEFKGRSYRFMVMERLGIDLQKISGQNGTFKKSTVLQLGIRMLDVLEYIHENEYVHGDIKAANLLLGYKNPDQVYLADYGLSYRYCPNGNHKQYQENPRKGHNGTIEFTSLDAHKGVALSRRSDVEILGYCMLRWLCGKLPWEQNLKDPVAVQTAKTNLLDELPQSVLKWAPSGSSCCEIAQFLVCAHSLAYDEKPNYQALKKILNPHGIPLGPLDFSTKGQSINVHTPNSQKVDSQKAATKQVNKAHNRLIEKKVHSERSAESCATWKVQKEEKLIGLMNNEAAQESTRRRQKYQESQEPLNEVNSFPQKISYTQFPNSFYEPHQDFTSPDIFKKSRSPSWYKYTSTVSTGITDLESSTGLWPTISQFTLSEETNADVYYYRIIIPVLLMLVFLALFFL
T4 sequence (P28482 whole entry): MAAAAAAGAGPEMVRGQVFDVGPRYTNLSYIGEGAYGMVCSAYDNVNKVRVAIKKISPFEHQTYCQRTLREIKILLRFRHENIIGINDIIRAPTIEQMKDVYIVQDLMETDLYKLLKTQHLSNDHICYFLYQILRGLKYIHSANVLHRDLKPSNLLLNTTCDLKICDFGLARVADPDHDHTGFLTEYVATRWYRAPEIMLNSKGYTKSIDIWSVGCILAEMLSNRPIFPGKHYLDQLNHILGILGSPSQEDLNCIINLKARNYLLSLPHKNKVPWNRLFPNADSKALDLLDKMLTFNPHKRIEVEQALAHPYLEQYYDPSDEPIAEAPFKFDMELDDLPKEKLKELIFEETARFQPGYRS

Regarding `CNC(=O)c1ccccc1Nc1nsnc(Nc2cccc(CS(C)(=O)=O)c2)c1=O` [Compound 4, N-Methyl-2-([5-({3-[(methylsulfonyl)methyl]phenyl}amino)-4-oxo-4H-1,2,6-thiadiazin-3-yl]-amino}-benzamide], the melting point is more than 300 °C. Besides, in data set [1], the “Number of Kinases Hit DSF > 2 °C” value was 0. Also, the ΔTm at 10 µM at BMP2K was -0.1 °C. Moreover, the ΔTm at 10 µM on PLK1A worked out at 0.2 °C. Also, the ΔTm at 10 µM at VRK2A is -0.3 °C. Moreover, the ΔTm at 10 µM on MAPK1A was -0.3 °C. The ΔTm at 10 µM at VRK1 was -0.3 °C. Also, the ΔTm at 10 µM on SRPK2A was -0.3 °C. For the same molecule, the ΔTm at 10 µM at MAPK3A is 0.1 °C. The thermal shift (ΔTm) at 10 µM at STK24A was 0 °C.
Turning to `Cc1ccc(Nc2nsnc(Nc3cccc(C(N)=O)c3)c2=O)cc1O` [Compound 1, 3-({5-[(3-Hydroxy-4-methylphenyl)amino]-4-oxo-4H-1,2,6-thiadiazin-3-yl}amino)benzamide], the “Kinases Hit DSF > 2 °C” value in [1] was “TRIB2”. In addition, the “Number of Kinases Hit DSF > 2 °C” value in data set [1] was found to be 1. The same molecule showed an IC50 in [2] of more than 50 µM. Besides, the ΔTm at 10 µM on BMP2K was -0.4 °C; at PLK1A it was 0.3 °C; at VRK2A it was -0.6 °C; on MAPK1A it was -0.2 °C; on VRK1, -0.4 °C; on SRPK2A it was -0.2 °C. The ΔTm at 10 µM at MAPK3A was 0.1 °C; on STK24A, -0.1 °C.
As for `CNC(=O)c1ccccc1Nc1nsnc(Nc2ccc(N3CCOCC3)cc2)c1=O` [Compound 5, N-Methyl-2-({5-[(4-morpholinophenyl)amino]-4-oxo-4H-1,2,6-thiadiazin-3-yl}amino)benzamide], the melting point was 285 to 287 °C. Moreover, the “Number of Kinases Hit DSF > 2 °C” value in [1] was 0. Moreover, at BMP2K, the ΔTm at 10 µM was -0.1 °C. Further, at PLK1A, the ΔTm at 10 µM was found to be 0.2 °C. The ΔTm at 10 µM at VRK2A was -0.3 °C. The ΔTm at 10 µM on MAPK1A was -0.3 °C. The thermal shift (ΔTm) at 10 µM at VRK1 was -0.3 °C. In addition, the ΔTm at 10 µM on SRPK2A is -0.1 °C. At MAPK3A, the ΔTm at 10 µM was determined as 0.1 °C. Moreover, at STK24A, the ΔTm at 10 µM is -1.1 °C.
The molecule `Cc1ccc(Nc2nsnc(Nc3ccc4c(c3)CS(=O)(=O)C4)c2=O)cc1O` [Compound 3, 3-[(2,2-Dioxido-1,3-dihydrobenzo[c]thiophen-5-yl)amino]-5-[(3-hydroxy-4-methylphenyl)amino]-4H-1,2,6-thiadiazin-4-one] gave a melting point of more than 300 °C. Further, in [1], the “Kinases Hit DSF > 2 °C” value was “STK10, TRIB2, TTK; also recorded: CAMK1G/2B, CDC42BPA,; also recorded: CLK1, MAP2K7, PIM1,” and the “Number of Kinases Hit DSF > 2 °C” value is 9. For the same molecule, in data set [2], the IC50 turned out to be 34 µM. Further, the ΔTm at 10 µM at BMP2K amounted to 0.1 °C. For the same molecule, the ΔTm at 10 µM on PLK1A came out at 1.1 °C. Also, the ΔTm at 10 µM at VRK2A came out at 0.1 °C. For the same molecule, on MAPK1A, the shift in melting temperature (ΔTm) at 10 µM came to 0.1 °C. Also, the ΔTm at 10 µM on VRK1 was -0.2 °C. Besides, the ΔTm at 10 µM at SRPK2A is 0.1 °C. The ΔTm at 10 µM on MAPK3A is 0.4 °C. Besides, the ΔTm at 10 µM on STK24A is -0.3 °C.
In turn, `Cc1ccc(Nc2nsnc(Nc3ccc(C(N)=O)cc3)c2=O)cc1O` [Compound 2, 4-({5-[(3-Hydroxy-4-methylphenyl)amino]-4-oxo-4H-1,2,6-thiadiazin-3-yl}amino)benzamide] registered a melting point of more than 300 °C. In [1], the “Kinases Hit DSF > 2 °C” value is recorded as “CAMK1D/G/K1/K2B, CDC42BPA, CDK2; also recorded: CHEK2, DYRK2, MAP2K7, PHKG2; also recorded: PIM1, PKMYT1, RPSKA6, STK3, STK17, TTK” and the “Number of Kinases Hit DSF > 2 °C” value was determined as 16. This molecule returned an IC50 in [2] of more than 50 µM. The ΔTm at 10 µM on BMP2K was -0.2 °C. At PLK1A, the ΔTm at 10 µM is -0.2 °C. In addition, the ΔTm at 10 µM on VRK2A came to 1.8 °C. The ΔTm at 10 µM at MAPK1A came to 1.4 °C. At VRK1, the ΔTm at 10 µM is -0.7 °C. On SRPK2A, the ΔTm at 10 µM was 0.6 °C. For the same molecule, on MAPK3A, the ΔTm at 10 µM turned out to be 1.2 °C.

The record behind these values is publication PMC6019134, “1,2,6-Thiadiazinones as Novel Narrow Spectrum Calcium/Calmodulin-Dependent Protein Kinase Kinase 2 (CaMKK2) Inhibitors” (Molecules : A Journal of Synthetic Chemistry and Natural …, 2018).
